Source: patent US5977144A (priority 1997, dated 1999)
Entries after “also recorded” stand apart in the source; their conditions may differ.

Columns and labels:
PC12 cells = format: cell-based
Method: PC12 cell-culture methods were modified from Greene and Tischler (1976). Cells were plated at 30-40% confluence and grown in Dulbecco's Modified Eagle Medium containing 10% heat-inactivated horse serum, 5% fetal bovine serum, 100 units/ml penicillin, 100 μg/ml streptomycin and 0.5 mM 1-glutamine. Cultures were maintained at 37° C., […] /6% CO2 and 90-92% humidity in culture plates pre-coated with poly-1lysine (10 g/L). Cultures were maintained for 7 days in serum-supplemented medium to which 100 ng/ml rat 2.5S NGF was added at day 1. On day 7, conditioned medium was replaced serum-free medium containing specified drugs. Four days later, cell density was estimated using the NIH Image program version 1.47 and number of neurite-expressing cells counted manually in blind fashion as described previously (Martin et al., 1994). A Nikon inverted microscope (100× magnification) was attached to a Mac II computer via a monochrome video camera (Cohu, Inc., San Diego, Calif.). Four random areas were counted per plate and there were 4 plates per treatment group, unless otherwise indicated. Neurites were defined as processes at least 2× the length of the perikaryon. To assess the reliability of the image analyses, a reticle was used for direct quantification of cells in the same view as the one analyzed in random samples.
PC12 cells were differentiated for 1 week with NGF. Drugs were administered for the 4 day interval after removal of serum and NGF. Neuites were counted and expressed as the mean±SEM of at least 3 plates/group.

[1] = system: nucleus basalis lesioned rats; experiment: Passive avoidance behavior in nucleus basalis lesioned rats; format: in vivo, rat; settings: for passive avoidance behavior (in words): nucleus basalis lesioned rats
Method: Passive avoidance behavior was measured in nucleus basalis lesioned rats after intraperitoneal (IP) injections of drugs (base weight) or 0.9% saline diluent. For lesions, male 5 month old Sprague Dawley rats were anesthetized with 30 mg/kg sodium pentobarbital (IP) and then infused bilaterally with 1 μl of 5 μg/μl ibotenic acid in phosphate buffered saline, pH 7.4, into the nucleus basalis as described previously (17). Infusion coordinates were anterior 7.0 mm, lateral 2.6 mm and vertical 6.5 mm according to Paxinos and Watson (Paxinos and Watson, 1986).
Following surgery, animals were returned to their individual home cages and fed semi-solid mash made from Purina Rat Chow for several days. One month later, animals were trained in a two chamber passive avoidance paradigm. Fifteen min after IP drug injection, they were placed in the lit compartment, and allowed to enter the dark adjoining chamber. Animals that entered the second chamber received a mild foot shock (0.8 mA) for 1 sec. Rats were tested for latency 24 hr later for up to 5 min; this test also began 15 min after injection. Statistical analyses utilized rank order nonparametric comparisons of latencies.

rat alpha4beta2 receptor = rat alpha4beta2 receptor (Rattus norvegicus, UniProt P09483+P12390); experiment: Activation of alpha4beta2 receptors expressed in Xenopus oocytes; format: cell-based; settings: read-out: alpha4beta2 activation: % response observed with 10 μM acetylcholine
Chain of rat alpha4beta2 receptor (P09483 31-630): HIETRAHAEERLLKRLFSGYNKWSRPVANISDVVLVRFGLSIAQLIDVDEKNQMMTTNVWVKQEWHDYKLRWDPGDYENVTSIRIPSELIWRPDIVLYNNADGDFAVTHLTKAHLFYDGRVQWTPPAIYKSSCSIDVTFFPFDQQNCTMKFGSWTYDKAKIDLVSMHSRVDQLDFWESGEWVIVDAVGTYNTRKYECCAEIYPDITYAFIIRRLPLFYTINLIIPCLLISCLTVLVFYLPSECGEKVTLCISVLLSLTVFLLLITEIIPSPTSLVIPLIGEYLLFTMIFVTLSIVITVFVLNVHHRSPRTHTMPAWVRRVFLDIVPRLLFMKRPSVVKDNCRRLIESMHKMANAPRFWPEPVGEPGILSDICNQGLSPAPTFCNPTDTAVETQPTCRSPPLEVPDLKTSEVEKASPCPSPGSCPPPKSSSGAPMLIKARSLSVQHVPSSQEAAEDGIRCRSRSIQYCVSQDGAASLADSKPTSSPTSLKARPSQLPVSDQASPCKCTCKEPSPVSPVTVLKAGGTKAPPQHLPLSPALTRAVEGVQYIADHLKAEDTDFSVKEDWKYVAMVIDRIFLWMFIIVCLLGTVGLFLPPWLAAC
Chain of rat alpha4beta2 receptor (P12390 25-500): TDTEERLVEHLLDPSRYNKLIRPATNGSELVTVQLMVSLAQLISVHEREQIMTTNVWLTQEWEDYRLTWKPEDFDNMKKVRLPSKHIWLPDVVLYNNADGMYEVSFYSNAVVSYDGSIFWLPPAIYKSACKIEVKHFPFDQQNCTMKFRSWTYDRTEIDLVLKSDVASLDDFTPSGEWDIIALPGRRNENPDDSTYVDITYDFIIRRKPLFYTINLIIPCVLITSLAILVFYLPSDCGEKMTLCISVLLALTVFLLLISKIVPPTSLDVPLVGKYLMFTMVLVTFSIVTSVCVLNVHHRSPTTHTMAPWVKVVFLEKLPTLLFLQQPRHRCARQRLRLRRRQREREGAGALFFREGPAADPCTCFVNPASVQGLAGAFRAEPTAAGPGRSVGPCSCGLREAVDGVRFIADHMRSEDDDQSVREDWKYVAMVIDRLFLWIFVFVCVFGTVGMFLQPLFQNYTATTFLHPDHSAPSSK

rat [2] = experiment: Focal ischemia infarct size in rats; format: in vivo
Method: FIG. 3. […] Rats received a 30 minute ischemia attack through tying of their common carotid; the amount of cell death (proportional to Infarct Size) was determined 24 hours later. Some animals received the benzylidene-anabaseine compound DMXB (1 mg/kg IP, salt weight) 1 hour before ligation, or the nicotinic antagonist mecamylamine (0.5 mg/kg IP), or both mecamylamine and DMXB, or DMXB 5 minutes after the ligation.
Male Sprague Dawley albino male rats (250-300 g) were anesthetized with a subcutaneous injection of ketamine, xylazine, and acepromazine (3:3:1 mixture, 0.7 cc/kg). Atropine (0.4 mg/kg IP) was injected several min prior to dissection of the carotid artery from the vagus. The internal carotid artery (ICA) was dissected until its proximal bifurcation into the terminal ICA and pterygopalatine arteries were clearly defined. The pterygopalatine artery was clipped parallel to and flush with the terminal ICA. Another clip was applied to the common carotid artery (CCA). The distal aspect of the external carotid artery (ECA) was coagulated and a straight aneurysm clip was applied 4 mm distal to the proximal ICA bifurcation. A suture was passed through the arteriotomized ECA stump into the ICA until the tip was resting against the aneurysm clip. The suture was removed 30 min later, with body temperature maintained between 36.5-37.5° C. The ECA stump was coagulated with bipolar electrocautery. Clips were removed and the wound was irrigated with saline prior to suturing.
Rats were euthanised 24 hours post-infarction and their brains removed and sectioned coronally (2 mm). Sections were placed into a 2% solution of 2,3,5-triphyenyl-tetrazolium cholide (Sigma Chemical Co., St. Louis. Mo.) for 20 minutes at 37° C. The sections were removed to a petri dish and covered with 10% formaldehyde solution. The outline function of the NIH Image computer program (version 1.47) was used to estimate the infarcted and total brain areas for each section. Infarct size was calculated as percent of total brain area.

NMDA receptor = experiment: High affinity [3H]MK801 binding to rat brain membranes; settings: concentrations up to 30 μM
NB Lesion = NB Lesion (Table 4); format: in vivo
rat [3] = settings: adult rat
[4] = system: rat primary neocortical neurons; settings: Shimohama et al., in press; cited from earlier work
[5] = system: animal models of learning and memory; settings: animals; cited from earlier work

SMILES | neurite protection during NGF-deprivation (in words) (PC12 cells; 10 μM) | Neurite Counts (PC12 cells; 10 μM (NGF 100 ng/ml), 4 days after removal of serum and NGF, mean±SEM, * p<0.05) | effective dose-response range, upper end ([1]; IP) | passive avoidance behavior (in words) ([1]; IP) | passive avoidance behavior (in words) ([1]; IP, listed as 2MeOCA) | passive avoidance behavior (in words) ([1]; IP, listed as trans-3(2-methoxy-cinnamylidene) anabaseine) | passive avoidance behavior (in words) ([1]; IP, listed as trans-3-(2-methoxycinnamylidene) anabaseine) | minimal effective dose ([1]; Rattus norvegicus, ip, read-out: effective dose-response range, lower end) | Emax (rat alpha4beta2 receptor) | protection against infarct / cell loss, given before ischemia (in words) (rat [2]; 1 mg/kg IP before ischemia) | infarct size (mean value) (rat [2]; coronal section 5 mm posterior to frontal pole, saline 28%) | protection against infarct, given during or after start of ischemia (in words) (rat [2]; during 30 min ischemic insult) | interference with high affinity [3H]MK801 binding (in words) (NMDA receptor) | NB Lesion (NB Lesion) | spontaneous locomotor activity (in words) (rat [3]) | activity against NMDA-receptor activation (in words) [4] | memory-related performance (in words) [5]
COc1ccccc1/C=C/C=C1\CCCN=C1c1cccnc1 [2-MeOCA, E,E-3-(2-Methoxycinnamylidene)anabaseine] | Neither 2-MeOCA nor 4-MeOCA elicited neurite-protection | 213 ± 26 | at least 3 mg/kg | most potent | most potent performance-enhancing agent | less potent than the present compounds | high potency | < 0.1 mg/kg | < 3% | – | – | – | – | – | – | – | –
COc1ccc(/C=C2\CCCN=C2c2cccnc2)c(OC)c1 [DMXB, 3-(2,4-Dimethoxybenzylidene) anabaseine] | – | – | – | – | – | – | – | – | – | protected principally in the posterior infarct area; also recorded: protected against cell loss; also recorded: did not have as much cell loss | 19% | ineffective | did not interfere | + (≥ 0.5) | without adversely affecting the animal's other functions, including its spontaneous locomotor activity | neuroprotective activity | enhances performance in several spatial and non-spatial memory-related paradigms in rats and rabbits
